Reference: publication PMC9287416, “Externalized phosphatidylinositides on apoptotic cells are eat-me signals recognized by CD14” (Cell Death and Differentiation, 2022)
Read-outs that look alike come from different tables or passages of the source.

Biological target: T1, CD14 (Homo sapiens, UniProt P08571)
T1 construct: full-length human CD14 expressed in HEK293T cells, recombinant; His-tagged protein used in flow cytometry
T1 sequence (P08571 20-345): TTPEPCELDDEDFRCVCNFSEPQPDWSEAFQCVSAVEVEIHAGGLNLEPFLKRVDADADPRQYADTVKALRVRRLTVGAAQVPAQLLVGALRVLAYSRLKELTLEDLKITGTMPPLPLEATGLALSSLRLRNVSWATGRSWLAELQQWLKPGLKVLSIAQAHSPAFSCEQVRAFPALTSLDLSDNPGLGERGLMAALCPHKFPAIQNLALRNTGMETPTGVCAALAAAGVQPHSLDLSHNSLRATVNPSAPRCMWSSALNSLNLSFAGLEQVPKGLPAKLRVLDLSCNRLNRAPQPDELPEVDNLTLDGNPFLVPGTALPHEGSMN
Assay: isothermal titration calorimetry
Format: binding

| Kd | Kd (PI(3,4,5)P3 in liposomes) | Compound |
| --- | --- | --- |
| 6.2 ± 1.2 µM |  | O=P(O)(O)O[C@H]1[C@H](OP(=O)(O)O)[C@@H](OP(=O)(O)O)[C@H](OP(=O)(O)O)[C@@H](OP(=O)(O)O)[C@H]1OP(=O)(O)O [IP6] |
|  | 5.6 ± 0.6 µM | PI(3,4,5)P3 |
